Experimental data reported in patent US20240287123A1 (Victoria Link Limited, priority 2021, published 2024).
“Also recorded” adds a separate entry of the source. Like-named read-outs stand apart in the source and are kept apart here.

Key:
EBV (Akata/Akata) = test: EBV assay: viral DNA quantification in induced Akata cells; type: cell-based, Epstein-Barr virus; conditions: for EC50: human gammaherpesvirus 4, Akata
Protocol: (§1) Akata cells were obtained from Louisiana State University, Baton Rouge, LA. The HCMV strain AD169 was obtained from the American Type Culture Collection (ATCC, Manassas, VA). Akata cells latently infected with EBV were obtained from Louisiana State University, Baton Rouge, LA.
(§2) Each experiment that evaluates the antiviral activity of compounds includes both positive and negative control compounds to ensure the performance of each assay. Concurrent assessment of cytotoxicity was also performed for each study in the same cell line and with the same compound exposure.
Assays for EBV were performed by reported methods.^37 Akata cells were induced to undergo a lytic infection with 50 μg/ml of a goat anti-human IgG antibody. Experimental compounds were diluted within plates. The cells were added and incubated for 72 h. Similar plates were initiated without virus induction/addition and used for measuring cytotoxicity by the addition of CTG. For all assays, the replication of the virus was assessed by the quantification of viral DNA. For EBV, primers 5′-[…]-3′ and 5′-CAG TTC CTC GCCTTAGGTTG-3 amplified a fragment corresponding to coordinates 96802-97234 in EBV genome (AJ507799). Compound concentrations sufficient to reduce genome copy number by 50% were calculated from experimental data as well as compound cytotoxicity.

[1] = Cytotoxicity in Akata cells (CTG), concurrent with EBV assay; type: cell-based; conditions: human, Akata cells (without virus induction), Table 1
Protocol: as §2
Assays for EBV were performed by reported methods.^37 Akata cells were induced to undergo a lytic infection with 50 μg/ml of a goat anti-human IgG antibody. Experimental compounds were diluted within plates. The cells were added and incubated for 72 h. Similar plates were initiated without virus induction/addition and used for measuring cytotoxicity by the addition of CTG. For all assays, the replication of the virus was assessed by the quantification of viral DNA. […] Compound concentrations sufficient to reduce genome copy number by 50% were calculated from experimental data as well as compound cytotoxicity.

[2] = test system: HCMV (AD169 strain in HFF cells); test: CPE (cytopathic effect) assay for HCMV; type: cell-based, Human Cytomegalovirus
Protocol: Human foreskin fibroblast (HFF) cells prepared from human foreskin tissue were obtained from the University of Alabama at Birmingham tissue procurement facility with approval from its IRB. The tissue was incubated at 4° C. for 4 h in Clinical Medium consisting of minimum essential media (MEM) with Earl's salts supplemented with 10% fetal bovine serum (FBS) (Hyclone, Inc. Logan UT), L-glutamine, fungizone, and vancomycin. Tissue was then placed in phosphate buffered saline (PBS), minced, rinsed to remove the red blood cells, and resuspended in trypsin/EDTA solution. The tissue suspension was incubated at 37° C. and gently agitated to disperse the cells, which were collected by centrifugation. Cells were resuspended in 4 ml Clinical Medium and placed in a 25 cm^2 flask and incubated at 37° C. in a humidified CO2 incubator for 24 h. The media was then replaced with fresh Clinical Medium and the cell growth was monitored daily until a confluent monolayer had formed. The HFF cells were then expanded through serial passages in standard growth medium of MEM with Earl's salts supplemented with 10% FBS, L-glutamine, penicillin, and gentamycin.
as §1, §2
Assays were performed in monolayers as described.37 Cells were seeded in 384 well plates and incubated for 24 h to allow the formation of confluent monolayers. Dilutions of test drug were prepared directly in the plates and the monolayers infected at a predetermined MOI based on virus used. After incubation, cytopathology was determined by the addition of CellTiter-Glo (CTG) reagent. […] Toxicity was measured using CTG as above.

HIVADA = test: HIV p24 alphaLISA in infected monocyte derived macrophages; type: cell-based, Human Immunodeficiency Virus
Protocol: Primary human MDMs were cultured from peripheral blood mononuclear cells and pre-treated for 24 h with ddhC (100 μM), compound 8 (100 μM), compound 21 (100 μM), emtricitabine control (15 μM, 10 μM, 1 μM, 0.1 μM), or the drug vehicle, DMSO. MDM were then infected with HIVADA in the presence of these compounds and treated daily (with compound), while culture supernatants were collected to quantify levels of HIV p24, a viral capsid protein, on days 2-7 of infection.
Leukopaks from healthy donors were obtained from the New York Blood Center and processed by Ficoll gradient centrifugation to isolate peripheral blood mononuclear cells (PBMC). These PBMC were cultured adherently into monocyte derived macrophages (MDM), according to published protocols, on 60 mm dishes for 6 days with 10-20 ng/ml macrophage colony stimulating factor (M-CSF). MDM were pre-treated with ddhC, compound 8, compound 21, emtricitabine (Cat. No .: 10071), or DMSO vehicle at indicated concentrations for 24 hours (NIH AIDS Reagent Program, Bethesda, MD). Cells were left uninfected or infected for 24 h in the presence of one of the compounds listed above with 20 ng/mL HIVADA, a macrophage-tropic HIV strain originally derived from a person with HIV (NIH). Media was changed daily with the mentioned compounds added each time, and supernatants were collected on days 2, 3, 4, 5, 6, and 7 of infection. Each treatment condition was analyzed in duplicate plates per experiment.
Supernatant samples were analyzed for the viral capsid protein, HIV p24, by a sensitive p24 alphaLISA according to the manufacturer's protocol (Perkin-Elmer, Waltham, MA). Treatment conditions were analyzed in duplicate plates, and each supernatant was analyzed in duplicate on a 96-well alphaLISA plate. These were then fit to a sigmoid standard curve to extrapolate HIV p24 levels in pg/mL within the assay limits of detection.

primary human MDM = test: Toxicity to MDM: LDH assay and light microscopy; type: cell-based
Protocol: Light microscopy was used to image MDMs on day 7 of infection. […] Colorimetric LDH assays were also performed on culture supernatants from these same cells on day 4 of infection to assess cell death.
At the end of each experiment, cells were imaged by light microscopy. After aspirating off media, cells were washed with PBS, and lysates were harvested in extraction buffer containing 0.1% Formic acid, 50% ACN, 40% MeOH, 10% H2O.
Drug toxicity was analyzed using an LDH assay kit according to manufacturer's instructions (Abcam #ab65393, Toronto, Canada). Briefly, supernatants from duplicate plates per treatment condition were added to a 96-well plate. Each supernatant was run in triplicate. Provided assay buffer was added to culture supernatants after mixing with a substrate solution that turns orange upon lactate exposure. After incubation for 30-45 min, colorimetric signal was quantified an OD of 450 nm. LDH was a positive control as well as cells lysed with 10% lysis buffer in media representing the “high control” to which % cytotoxicity was measured. The reference sample was either control uninfected cells treated with DMSO or negative control HIV-infected cells treated with DMSO. Culture media alone was used as a technical negative control. This background signal that was subtracted from all test wells.

SMILES: CC(C)C(=O)OCC1=C[C@@H](O)[C@H](n2ccc(N)nc2=O)O1 [Compound 8, 3′-Deoxy-3′,4′-didehydro-5′-O-isobutyroyl-cytidine]
- activity against EBV (EBV (Akata/Akata); cell-based assay, highest concentration tested in primary assays 50 μM): performed most favourably
- EC50 (EBV (Akata/Akata); Akata/Akata, Table 1, read-out: EBV EC50): 7.6 µM
- EC50 (EBV (Akata/Akata); read-out: Result for compound (EC50/UM), EBV Akata/Akata, assay order Primary): 7.59 µM
- EC50 (EBV (Akata/Akata); read-out: EC50 against EBV): 7.6 to 38.7 µM
- CC50 at 72 h [1]: > 50 µM
- EC50 ([2]; Human betaherpesvirus 5, AD169, HFF, approximate, read-out: EC50 against HCMV): ~0.02 µM
- EC50 ([2]; Human betaherpesvirus 5, AD169 strain in HFF cells, Table 1, read-out: HCMV EC50): 0.02 µM
- reduction of p24 levels (HIVADA; 10 μM, by day 6 of infection): ~50%
- levels of HIV p24 viral capsid protein (HIVADA; 100 μM, infected MDM, days 2-7, compared with DMSO control): significantly reduce; also recorded: significantly decreased
- impact on HIV replication relative to the DMSO control (HIVADA; low doses: compound 8 compound 21 (0.1-1 μM) as printed): minimal impact
- LDH activity in HIV-infected MDMs relative to DMSO controls (primary human MDM; 100 μM, day 4 of infection): nearly identical
- LDH activity relative to uninfected DMSO controls (primary human MDM; 100 μM, uninfected or HIV-infected MDMs, day 4 of infection): no significant difference
- toxicity to MDMs (primary human MDM; 100 uM, visual inspection by light microscopy and colorimetric LDH assays): non-toxic
